Laboratory results from US8697692B2, “Pyrrolo [3,2-c] pyridine-4-one 2-indolinone protein kinase inhibitors” (Shanghai Hengrui Pharmaceutical Co., Ltd., priority 2006, dated 2014).

Target: T1, recombinant human VEGF-R2 (Homo sapiens, UniProt P35968)
T1 construct: purchased Cell signaling technology #7787
Assay: VEGF-R2 Kinase Assay (ELISA)
Type: biochemical
Details: 10 μM ATP, 25° C. 30 minutes, read-out: IC50 (VEGFR/bio)
Protocol: This assay is used to measure the in vitro kinase activity of recombinant human VEGF-R2 in an ELISA assay.
c. Stop Buffer: 50 mM EDTA, pH 8.0.
d. DELFIA® Europium-labeled Anti-mouse IgG (PerkinElmer Life Sciences #AD0124).
f. DELFIA® Streptavidin coated, 96-well, yellow plate (PerkinElmer Life Sciences #AAAND-0005).
k. HTScan™ Tyrosine Kinase Buffer (4×)
The following protocol was used:
1. Dilute test compound with DMSO to the desired final assay concentration.
2. Dilute 6 μM substrate peptide (Tyr87) 1:1 with dH2O, add 15 μl to every assay.
3. Immediately transfer VEGF-R2 enzyme from −80° C. to ice. Allow enzyme to thaw on ice.
4. Take 2.2 μg VEGF-R2 enzyme to the enzyme tube.
6. Transfer 0.75 ml of DTT/Kinase buffer to each enzyme tube to make 4× reaction cocktail. Add 7.5 μl 4× reaction cocktail to every assay.
7. Add 2 μl ATP (10 mM) to 498 μl dH2O, take 7.5 μl for every assay. Final Assay Conditions for a 30 μl Reaction
Incubate reaction tube at 25° C. for 30 minutes. 9. Add 30 μl/assay stop buffer (50 mM EDTA, pH 8.0) to stop the reaction. 10. Transfer 25 μl of each reaction and 75 μl dH2O/well to a 96-well streptavidin coated plate and incubate, with shaking at room temperature for 60 minutes. 11. Wash three times with 200 μl/well PBS-T buffer. Pat plate on paper towel to remove excess liquid. 12. […] Add 100 μl diluted primary antibody to each well. 13. Incubate, with shaking at room temperature for 60 minutes. 14. Wash as described above in step 11. 15. Dilute Europium labeled anti-mouse IgG 1:500 in PBS-T buffer with 1% BSA. Add 100 μl diluted antibody to each well. 16. Incubate, with shaking at room temperature for 30 minutes. 17. Wash five times with 200 μl/well PBS-T buffer. Pat plate on paper towel to remove excess liquid. 18. Add 100 μl/well DELFIA® Enhancement Solution. 19. Incubate, with shaking at room temperature for 5 minutes. 20. Detect 615 nm fluorescence emission with appropriate Time-Resolved Plate Reader.
X=the fluorescence value of the well contained test compound
The IC50 value can be derived from the IRs of compounds at different concentration gradients.

T1 sequence (P35968 20-1356): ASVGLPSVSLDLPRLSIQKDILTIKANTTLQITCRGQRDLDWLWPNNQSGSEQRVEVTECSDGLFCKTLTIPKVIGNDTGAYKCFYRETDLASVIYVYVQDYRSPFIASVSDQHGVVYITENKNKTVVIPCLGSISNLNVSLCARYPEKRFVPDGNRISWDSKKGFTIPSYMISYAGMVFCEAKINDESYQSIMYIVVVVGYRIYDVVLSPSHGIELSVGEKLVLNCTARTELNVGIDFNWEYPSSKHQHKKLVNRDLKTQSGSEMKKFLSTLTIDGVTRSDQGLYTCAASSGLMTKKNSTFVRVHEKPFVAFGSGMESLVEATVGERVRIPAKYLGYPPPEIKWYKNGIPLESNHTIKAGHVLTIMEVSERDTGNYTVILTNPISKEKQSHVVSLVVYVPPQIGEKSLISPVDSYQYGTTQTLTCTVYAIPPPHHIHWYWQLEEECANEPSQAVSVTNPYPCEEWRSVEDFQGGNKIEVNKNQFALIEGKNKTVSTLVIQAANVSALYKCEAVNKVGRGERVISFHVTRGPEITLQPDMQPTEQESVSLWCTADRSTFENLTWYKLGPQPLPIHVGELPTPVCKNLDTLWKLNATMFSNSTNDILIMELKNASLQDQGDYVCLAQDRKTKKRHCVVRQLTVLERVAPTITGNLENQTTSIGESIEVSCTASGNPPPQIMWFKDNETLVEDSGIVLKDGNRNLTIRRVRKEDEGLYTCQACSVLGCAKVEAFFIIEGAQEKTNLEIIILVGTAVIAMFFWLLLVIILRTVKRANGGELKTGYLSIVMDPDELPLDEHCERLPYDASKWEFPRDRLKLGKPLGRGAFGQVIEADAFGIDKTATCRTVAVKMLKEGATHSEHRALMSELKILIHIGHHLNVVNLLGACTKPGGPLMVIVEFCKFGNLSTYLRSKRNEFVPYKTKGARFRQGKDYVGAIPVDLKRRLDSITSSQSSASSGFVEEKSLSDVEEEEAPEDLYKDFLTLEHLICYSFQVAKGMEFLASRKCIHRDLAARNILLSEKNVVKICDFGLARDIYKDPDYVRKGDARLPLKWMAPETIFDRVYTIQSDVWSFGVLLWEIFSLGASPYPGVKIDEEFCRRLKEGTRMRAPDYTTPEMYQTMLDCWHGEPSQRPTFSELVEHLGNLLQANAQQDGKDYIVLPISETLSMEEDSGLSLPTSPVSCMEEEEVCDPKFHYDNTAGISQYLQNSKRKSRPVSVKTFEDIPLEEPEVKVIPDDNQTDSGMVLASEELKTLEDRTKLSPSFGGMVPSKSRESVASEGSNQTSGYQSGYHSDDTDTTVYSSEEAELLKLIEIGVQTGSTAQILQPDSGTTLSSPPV

SMILES | IC50
Cc1c(/C=C2\C(=O)Nc3cccc(C4CCNCC4)c32)[nH]c2c1C(=O)N(CCN1CCOCC1)CC2 [Example 52, 3-Methyl-5-(2-morpholin-4-yl-ethyl)-2-(2-oxo-4-piperidin-4-yl-1,2-dihydro-indol-3-ylidenemethyl)-1,5,6,7-tetrahydro-pyrrolo[3,2-c]pyridin-4-one] | 1270 nM
Cc1c(/C=C2\C(=O)Nc3ccc(Br)cc32)[nH]c2c1C(=O)N(CCN1CCCC1)CC2 [Example 40, 2-(5-Bromo-2-oxo-1,2-dihydro-indol-3-ylidenemethyl)-3-methyl-5-(2-pyrrolidin-1-yl-ethyl)-1,5,6,7-tetrahydro-pyrrolo[3,2-c]pyridin-4-one] | 47 nM
CCN(CC)CCN1CCc2[nH]c(/C=C3\C(=O)Nc4cccc(C5CCNCC5)c43)c(C)c2C1=O [Example 31, 5-(2-Diethylamino-ethyl)-3-methyl-2-(2-oxo-4-piperidin-4-yl-1,2-dihydro-indol-3-ylidenemethyl)-1,5,6,7-tetrahydro-pyrrolo[3,2-c]pyridin-4-one] | 35 nM
Cc1c(/C=C2\C(=O)Nc3ccc(Cl)cc32)[nH]c2c1C(=O)N(CCN1CCOCC1)CC2 [Example 16, 2-(5-Chloro-2-oxo-1,2-dihydro-indol-3-ylidenemethyl)-3-methyl-5-(2-morpholin-4-yl-ethyl)-1,5,6,7-tetrahydro-pyrrolo[3,2-c]pyridin-4-one] | 44 nM
Cc1c(/C=C2\C(=O)Nc3ncnc(Nc4ccc(F)c(Cl)c4)c32)[nH]c2c1C(=O)N(CCN1CCOCC1)CC2 [Example 24, 4-(3-Chloro-4-fluoro-phenylamino)-5-[3-methyl-5-(2-morpholin-4-yl-ethyl)-4-oxo-4,5,6,7-tetrahydro-1H-pyrrolo[3,2-c]pyridine-2-ylmethylenene]-5,7-dihydro-pyrrolo[2,3-d]pyrimidin-6-one] | 680 nM

Second part, the compound after the results:

IC50 | SMILES
94 nM | CCN(CC)CCN1CCc2[nH]c(/C=C3\C(=O)Nc4cccc(Br)c43)c(C)c2C1=O [Example 30, 2-(4-Bromo-2-oxo-1,2-dihydro-indol-3-ylidenemethyl)-5-(2-diethylamino-ethyl)-3-methyl-1,5,6,7-tetrahydro-pyrrolo[3,2-c]pyridin-4-one]
7.1 nM | CCN(CC)CCN1CCc2[nH]c(/C=C3\C(=O)Nc4cccc(-c5cccc(F)c5F)c43)c(C)c2C1=O [Example 39, 5-(2-diethylamino-ethyl)-2-[4-(2,3-difluoro-phenyl)-2-oxo-1,2-dihydro-indol-3-ylidenemethyl]-3-methyl-1,5,6,7-tetrahydro-pyrrolo[3,2-c]pyridin-4-one]
11 nM | CCN(CC)CCN1CCc2[nH]c(/C=C3\C(=O)Nc4cccc(-c5ccc(Cl)cc5F)c43)c(C)c2C1=O [Example 34, 2-[4-(4-Chloro-2-fluoro-phenyl)-2-oxo-1,2-dihydro-indol-3-ylidenemethyl]-5-(2-diethylamino-ethyl)-3-methyl-1,5,6,7-tetrahydro-pyrrolo[3,2-c]pyridin-4-one]
70 nM | CCN(CC)CCN1CCc2[nH]c(/C=C3\C(=O)Nc4cccc(CCO)c43)c(C)c2C1=O [Example 37, 5-(2-Diethylamino-ethyl)-2-[4-(2-hydroxy-ethyl)-2-oxo-1,2-dihydro-indol-3-ylidenemethyl]-3-methyl-1,5,6,7-tetrahydro-pyrrolo[3,2-c]pyridin-4-one]
10 nM | CCN(CC)CCN1CCc2[nH]c(/C=C3\C(=O)Nc4cccc(-c5cccc(Cl)c5F)c43)c(C)c2C1=O [Example 36, 2-[4-(3-Chloro-2-fluoro-phenyl)-2-oxo-1,2-dihydro-indol-3-ylidenemethyl]-5-(2-diethylamino-ethyl)-3-methyl-1,5,6,7-tetrahydro-pyrrolo[3,2-c]pyridin-4-one]
1890 nM | CCN(CC)CCN1CCc2[nH]c(/C=C3\C(=O)Nc4ncnc(Nc5ccc(F)c(Cl)c5)c43)c(C)c2C1=O [Example 12, 4-(3-Chlor O-4-fluoro-phenylamino)-5-[5-(2-diethylamino-ethyl)-3-methyl-4-oxo-4,5,6,7-tetrahydro-1H-pyrrolo[3,2-c]pyridine-2-ylmethylene]-5,7-dihydro-pyrrolo[2,3-d]pyrimidin-6-one]
